This note sets out measurements from US4218472A, “Geminally disubstituted indene derivatives” (AB Kabi, priority 1977, dated 1980).

Type in all cases: cell-based
For one assay, the system named is rat vas deferens. In words: Effect on Rat Isolated Vas Deferens. The following applies: for Emax: read-out: max. effect, % of NA max.; for minimal effective concentration: read-out: threshold conc.; for effect on rat vas deferens (in words): noradrenaline-like activity. The text has this:
Effect on Rat Isolated Vas Deferens
Male albino rats weighing 250-350 g were anaesthetized with diethyl ether and then decapitated. The vas deferens was removed, freed from mesenteric attachments and then suspended in Kreb's bicarbonate solution (Hukovic, 1961). Threads were attached to both ends of the organ. The distal part was tied to a fixed pin in the organ bath and the proximal part to a force displacement transducer connected to a recording system. […] The load on the organ was adjusted to 0.5 g. The vas deferens was allowed to stabilize for 15 minutes before dose-response curves were obtained.
The technique for making cumulative dose-response curves in accordance with van Rossum (1963) was employed. The stimulating drug, noradrenaline (NA), was added to the bath in a manner to achieve geometrically increasing concentrations in the organ bath without washings in between. After each injection of NA the organ was allowed to contract until a state of equilibrium had been reached, and then the next dose of NA was added. This procedure was repeated until no further increase in contraction was obtained. The dosage of NA was adapted to give a concentration step in the bath of 1/2 log 10. The tested concentration interval was 10^-8 -10^-4 M, 3.10^-4 M plus maximum effect at 3 10^-5 and 10^-4 M. Compounds of formula I, identified as 2-12, and comparison compounds 13-15, were tested by the same technique. The compounds conform to the formula below except where indicated for other values of R^1, R^2 and R^3.

A further assay relates to urethra strip (cat). In words: Effect on urethra strip of cat. The note with it: Felis catus, isometric tension, Tyrode solution 37° C., pH 7.5. The protocol: (§1) Effect on urethra strip of cat and aortic strip of rabbit Adult male and female cats weighing 2-5 kg were used. The animals were anaesthetized with pentobarbital, 30-50 mg/kg intraperitoneally. An abdominal incision was made and the bladder and urethra were dissected free and cut. The bladder and urethra were placed in Tyrode solution of room temperature. Care was taken to keep the tissue moist during the preparation. The bladder was cut away and the urethra was cut longitudinally. Segments of 2-3 mm width were mounted in an organ-bath with Tyrode solution at 37° C. and connected to a strain gauge transducer so that the isometric tension could be recorded. The preparation was maintained at pH 7.5 by bubbling a mixture of 93.5 volume-% O2 and 6.5 volume-% CO2 through the solution. This experimental set up thus allowed the recording of circular muscle activity as isometric tension changes. The initial tension was set at approximately 0.5 g. After mounting, the preparation was allowed 1 hour for acclimatization before starting the experiment. All recordings were made from the base line. The drugs were added directly to the organ-baths and cumulative dose-response curves were recorded. Noradrenaline has consistently been used as a reference drug for agonistic action. The substances tested as agonists were noradrenaline bitartrate (NA) and the above compound No. 3. […]

Another assay deals with aortic strip (rabbit). In words: Effect on aortic strip of rabbit. The following applies: Oryctolagus cuniculus. The protocol:
as §1

[1] abbreviates: rat isolated vas deferens, contraction relative to noradrenaline maximum.
[2] abbreviates: rat isolated vas deferens, cumulative dose-response, 31° C.
Setting [3] is: Rattus norvegicus, rat isolated vas deferens, cumulative dose-response, 31° C.

Where two headings read alike, the source gives them in different places.

By EC50 is commonly meant the concentration giving half of the maximal effect. Low values mean a more potent agent, high ones a less potent agent. Turning to `NCC(O)C1=CC2(CCC2)c2ccccc21` (stereo not drawn) [No. 7], the Emax in the assay on rat vas deferens (setting [1]) was determined as 120%. Also, in the assay with rat vas deferens (setting [2]), the EC50 was found to be 15 µM.
Regarding `CC1(C)C=C(C(O)CN)c2ccccc21` (stereo not drawn) [No. 8, 2-Amino-1-(1,1-dimethylindene-3-yl)ethanol], in the assay on rat vas deferens (setting [3]), the minimal effective concentration was determined as 0.3 µM. Also, the Emax with rat vas deferens (setting [1]) turned out to be 100%. The same compound showed a concentration for a half-maximal effect (EC50) in the assay with rat vas deferens (setting [2]) of 2 µM.
Consider `CC(C)NCC(O)C1=CC2(CCCC2)c2ccccc21` (stereo not drawn) [No. 6], for which the Emax with rat vas deferens (setting [1]) is 90%. In the assay with rat vas deferens (setting [2]), the EC50 turned out to be 4 µM.
Regarding `NCC(O)C1=CC2(CCCCC2)c2ccccc21` (stereo not drawn) [No. 9, 2-Amino-1-[spiro(cyclohexane-1,1'-indene)-3'-yl]ethanol], the minimal effective concentration in the assay on rat vas deferens (setting [3]) amounted to 3 µM. Further, in the assay with rat vas deferens (setting [1]), the Emax was determined as 70%. The same compound gave an EC50 in the assay with rat vas deferens (setting [2]) of 15 µM.
With `CN(C)CC(=O)C1=CC2(CCCC2)c2ccccc21` [No. 13, reference compound], the “effect on rat vas deferens (in words)” value with rat vas deferens was “inactive”. For the same compound, the Emax with rat vas deferens (setting [1]) was 0%.
On to `CCNCC(O)C1=CC2(CCCC2)c2ccccc21` (stereo not drawn) [No. 4, 2-Ethylamino-1-[spiro(cyclopentane-1,1'-indene)-3'-yl]ethanol], for which, in the assay on rat vas deferens (setting [3]), the minimal effective concentration came to 0.5 µM. For the same compound, the Emax with rat vas deferens (setting [1]) was 85%. Moreover, in the assay on rat vas deferens (setting [2]), a half-maximal response (EC50) required 1.5 µM.
In the case of “2-Isopropylamino-1-[spiro(cyclopentane-1,1'-indene)-3'-yl]ethanol [Example 12]”, the “max. effect, % of NA max.” value with rat vas deferens (setting [1]) is 35%.
“2-Pyrrolidino-1-[spiro)cyclopentane-1,1'-indene)-3'-yl]-ethanol [Example 5]”: in the assay with rat vas deferens (setting [1]), the “max. effect, % of NA max.” value is 50%. Also, the threshold conc. with rat vas deferens (setting [2]) is recorded as 10^-5 - 10^-4 M.
Consider `NC[C@H](O)c1ccc(O)c(O)c1` [No. 1, noradrenaline, reference compound], for which the concentration giving a half-maximal response (EC50) was 27 µM in the assay on urethra strip (cat), 0.18 µM in the assay on aortic strip (rabbit) and 30 µM in the assay on rat vas deferens (setting [2]). Besides, in the assay with rat vas deferens (setting [3]), the minimal effective concentration was determined as 1 µM. Moreover, the Emax with rat vas deferens (setting [1]) came to 100%.
Turning to `CNCC(O)C1=CC2(CCCC2)c2ccccc21` (racemic) [No. 3, 2-Methylamino-1-[spiro(cyclopentane-1,1'-indene)-3'-yl]ethanol], the EC50 was 0.69 µM in the assay on urethra strip (cat), 0.045 µM in the assay with aortic strip (rabbit) and 0.15 µM with rat vas deferens (setting [2]). In addition, in the assay on rat vas deferens (setting [3]), the minimal effective concentration was found to be 0.03 µM. The Emax in the assay on rat vas deferens (setting [1]) is 100%.
As to `CNCCC1=CC2(CCCC2)c2ccccc21` [No. 15, reference compound], the Emax with rat vas deferens (Rattus norvegicus) turned out to be 0%. The “effect on rat vas deferens (in words)” value in the assay with rat vas deferens is recorded as “effect disappears”.
Consider `NCC(O)C1=CC2(CCCC2)c2ccccc21` (stereo not drawn) [No. 2, 2-Amino-1-[spiro(cyclopentane-1,1'-indene)-3'-yl]ethanol], for which the minimal effective concentration in the assay with rat vas deferens (setting [3]) was found to be 0.1 µM. Besides, the Emax in the assay on rat vas deferens (setting [1]) was found to be 100%. Besides, the EC50 in the assay on rat vas deferens (setting [2]) amounted to 40 µM.
For `COc1ccc2c(c1)C(C(O)CN)=CC21CCCC1` (stereo not drawn) [No. 10, 2-Amino-1-[5'-methoxyspiro(cyclopentane-1,1'-indene)-3'-yl]-ethanol], in the assay on rat vas deferens (setting [3]), the minimal effective concentration came out at 5 µM. Also, in the assay on rat vas deferens (setting [1]), the Emax stood at 65%. In addition, the response with rat vas deferens (setting [2]) was half-maximal at 50 µM (EC50).
As to “2-tert.-Butylamino-1-[spiro(cyclopentane-1,1'-indene)-3'-yl]ethanol [Example 11]”, the “max. effect, % of NA max.” value with rat vas deferens (setting [1]) is given as 90%.
In the case of `CNCC(O)C1CC2(CCCC2)c2ccccc21` (stereo not drawn) [No. 14, reference compound], in the assay with rat vas deferens, the “effect on rat vas deferens (in words)” value is listed as “effect disappears”. Further, the Emax in the assay with rat vas deferens (setting [1]) was 0%.
